Data from patent US20220356186A1, “PERK INHIBITING PYRROLOPYRIMIDINE COMPOUNDS” (HiberCell, Inc., priority 2019, published 2022).
Read-outs that look alike come from different tables or passages of the source.

What was measured:
[1] = target: T1, EIF2AK3 (PERK) catalytic domain (amino acids 536-1116) (Homo sapiens, UniProt Q9NZJ5); test: PERK in vitro activity assay (isolated), TR-FRET kinase assay; assay type: biochemical
T1 construct: EIF2AK3 (PERK) catalytic domain (amino acids 536-1116)
T1 sequence (Q9NZJ5 536-1116): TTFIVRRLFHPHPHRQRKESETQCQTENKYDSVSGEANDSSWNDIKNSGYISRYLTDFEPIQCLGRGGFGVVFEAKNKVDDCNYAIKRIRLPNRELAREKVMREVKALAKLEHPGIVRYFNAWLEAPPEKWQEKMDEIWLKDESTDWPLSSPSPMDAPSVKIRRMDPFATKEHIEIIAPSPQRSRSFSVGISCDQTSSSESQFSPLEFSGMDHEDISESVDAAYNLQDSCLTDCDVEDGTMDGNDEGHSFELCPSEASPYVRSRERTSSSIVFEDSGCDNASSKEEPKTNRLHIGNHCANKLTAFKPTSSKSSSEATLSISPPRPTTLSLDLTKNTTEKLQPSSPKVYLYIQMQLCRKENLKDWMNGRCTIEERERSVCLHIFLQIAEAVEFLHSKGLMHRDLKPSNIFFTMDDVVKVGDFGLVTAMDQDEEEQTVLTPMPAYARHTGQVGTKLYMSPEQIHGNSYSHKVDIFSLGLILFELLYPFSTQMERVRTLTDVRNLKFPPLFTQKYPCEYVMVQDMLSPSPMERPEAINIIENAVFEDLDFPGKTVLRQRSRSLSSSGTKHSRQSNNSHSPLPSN
Method in brief: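 TR-FRET read-out: after EDTA stop (10 mM final), Tb-labelled phospho-eIF2a antibody (2 nM) for 90 min; IC50 via 4-parameter nonlinear fit. Reaction: PERK aa 536-1116, GFP-eIF2a 100-200 nM, HEPES pH 7.5 with MgCl2/EGTA/Brij-35, 45 min, room temperature, started by enzyme.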

select kinases = test: KINOMEscan in vitro competition binding assay for select kinases; conditions: for KINOMEscan competition binding, inhibition of AURKB: kinase AURKB; for KINOMEscan competition binding, inhibition of AXL: kinase AXL; for KINOMEscan competition binding, inhibition of BLK: kinase BLK; for KINOMEscan competition binding, inhibition of CAMK4: kinase CAMK4; for KINOMEscan competition binding, inhibition of CDK8: kinase CDK8; for KINOMEscan competition binding, inhibition of CDK11: kinase CDK11; for KINOMEscan competition binding, inhibition of CSF1R: kinase CSF1R; for KINOMEscan competition binding, inhibition of EIF2AK1: kinase EIF2AK1; for KINOMEscan competition binding, inhibition of EPHB6: kinase EPHB6; for KINOMEscan competition binding, inhibition of FLT3: kinase FLT3; for KINOMEscan competition binding, inhibition of HIPK4: kinase HIPK4; for KINOMEscan competition binding, inhibition of LOK: kinase LOK; for KINOMEscan competition binding, inhibition of MAP3K2: kinase MAP3K2; for KINOMEscan competition binding, inhibition of MAP3K3: kinase MAP3K3; for KINOMEscan competition binding, inhibition of MAP3K15: kinase MAP3K15; for KINOMEscan competition binding, inhibition of MEK5: kinase MEK5; for KINOMEscan competition binding, inhibition of MKNK2: kinase MKNK2; for KINOMEscan competition binding, inhibition of NEK1: kinase NEK1; for KINOMEscan competition binding, inhibition of NEK5: kinase NEK5; for KINOMEscan competition binding, inhibition of PIK3C2B: kinase PIK3C2B; for KINOMEscan competition binding, inhibition of RIOK2: kinase RIOK2; for KINOMEscan competition binding, inhibition of RIPK1: kinase RIPK1; for KINOMEscan competition binding, inhibition of RIPK2: kinase RIPK2; for KINOMEscan competition binding, inhibition of RIPK5: kinase RIPK5; for KINOMEscan competition binding, inhibition of TESK1: kinase TESK1; for KINOMEscan competition binding, inhibition of TIE2: kinase TIE2; for KINOMEscan competition binding, inhibition of TRKA: kinase TRKA; for KINOMEscan competition binding, inhibition of TRKB: kinase TRKB; for KINOMEscan competition binding, inhibition of TRKC: kinase TRKC; for KINOMEscan competition binding, inhibition of VRK2: kinase VRK2; for KINOMEscan competition binding, inhibition of YANK1: kinase YANK1; for KINOMEscan competition binding, inhibition of YANK2: kinase YANK2; for KINOMEscan competition binding, inhibition of YSK4: kinase YSK4
[2] = system: GFP-eIF2α in HEK293 cells; test: PERK cellular assay, TR-FRET in HEK293-EGFP-eIF2a cells after tunicamycin-induced ER stress; assay type: cell-based
Method in brief: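 Compounds were added 30 min before a 2 h tunicamycin ([…]) challenge of lentivirally made GFP-eIF2α HEK293 cells, 5000/well; lysate TR-FRET ratio was the read-out.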

Aqueous solubility = assay type: physicochemical
[3] = isolated PERK enzyme, 1.5 μM ATP, read-out: Biochemical IC50
[4] = HEK293-EGFP-eIF2a cells, tunicamycin 2 hours, read-out: Cellular eIF2α IC50
[5] = biochemical potency, Table 2, read-out: PERK IC50
[6] = Homo sapiens, HEK293, cellular potency, Table 2, read-out: P-EIF2α IC50

Row | IC50 [1, 3] | Compound | KINOMEscan competition binding, inhibition of AURKB (select kinases) | KINOMEscan competition binding, inhibition of AXL (select kinases) | KINOMEscan competition binding, inhibition of BLK (select kinases) | KINOMEscan competition binding, inhibition of CAMK4 (select kinases) | KINOMEscan competition binding, inhibition of CDK8 (select kinases) | KINOMEscan competition binding, inhibition of CDK11 (select kinases) | KINOMEscan competition binding, inhibition of CSF1R (select kinases) | KINOMEscan competition binding, inhibition of EIF2AK1 (select kinases) | KINOMEscan competition binding, inhibition of EPHB6 (select kinases) | KINOMEscan competition binding, inhibition of FLT3 (select kinases) | KINOMEscan competition binding, inhibition of HIPK4 (select kinases) | KINOMEscan competition binding, inhibition of LOK (select kinases) | KINOMEscan competition binding, inhibition of MAP3K2 (select kinases) | KINOMEscan competition binding, inhibition of MAP3K3 (select kinases) | KINOMEscan competition binding, inhibition of MAP3K15 (select kinases) | KINOMEscan competition binding, inhibition of MEK5 (select kinases) | KINOMEscan competition binding, inhibition of MKNK2 (select kinases) | KINOMEscan competition binding, inhibition of NEK1 (select kinases) | IC50 [2, 4] | also measured
1 | 1 to 25 nM | Cc1nc(N)c2c(-c3ccc(NC(=O)C(O)c4cccc(F)c4)cc3C)cn(C)c2n1 (single isomer, unassigned) [Example 1, N-(4-(4-amino-2,7-dimethyl-7H-pyrrolo[2,3-d]pyrimidin-5-yl)-3-methylphenyl)-2-(3-fluorophenyl)-2-hydroxyacetamide] | No Inhibition (“No Inhibition” refers to less than 50% inhibition) | No Inhibition (“No Inhibition” refers to less than 50% inhibition) | No Inhibition (“No Inhibition” refers to less than 50% inhibition) | No Inhibition (“No Inhibition” refers to less than 50% inhibition) | No Inhibition (“No Inhibition” refers to less than 50% inhibition) | No Inhibition (“No Inhibition” refers to less than 50% inhibition) | No Inhibition (“No Inhibition” refers to less than 50% inhibition) | No Inhibition (“No Inhibition” refers to less than 50% inhibition) | No Inhibition (“No Inhibition” refers to less than 50% inhibition) | No Inhibition (“No Inhibition” refers to less than 50% inhibition) | No Inhibition (“No Inhibition” refers to less than 50% inhibition) | No Inhibition (“No Inhibition” refers to less than 50% inhibition) | No Inhibition (“No Inhibition” refers to less than 50% inhibition) | No Inhibition (“No Inhibition” refers to less than 50% inhibition) | No Inhibition (“No Inhibition” refers to less than 50% inhibition) | No Inhibition (“No Inhibition” refers to less than 50% inhibition) | No Inhibition (“No Inhibition” refers to less than 50% inhibition) | No Inhibition (“No Inhibition” refers to less than 50% inhibition) | 26 to 50 nM | KINOMEscan competition binding, inhibition of NEK5 (select kinases): No Inhibition (“No Inhibition” refers to less than 50% inhibition); KINOMEscan competition binding, inhibition of PIK3C2B (select kinases): No Inhibition (“No Inhibition” refers to less than 50% inhibition); KINOMEscan competition binding, inhibition of RIOK2 (select kinases): No Inhibition (“No Inhibition” refers to less than 50% inhibition); KINOMEscan competition binding, inhibition of RIPK1 (select kinases): No Inhibition (“No Inhibition” refers to less than 50% inhibition); KINOMEscan competition binding, inhibition of RIPK2 (select kinases): No Inhibition (“No Inhibition” refers to less than 50% inhibition); KINOMEscan competition binding, inhibition of RIPK5 (select kinases): No Inhibition (“No Inhibition” refers to less than 50% inhibition); KINOMEscan competition binding, inhibition of TESK1 (select kinases): No Inhibition (“No Inhibition” refers to less than 50% inhibition); KINOMEscan competition binding, inhibition of TIE2 (select kinases): No Inhibition (“No Inhibition” refers to less than 50% inhibition); KINOMEscan competition binding, inhibition of TRKA (select kinases): No Inhibition (“No Inhibition” refers to less than 50% inhibition); KINOMEscan competition binding, inhibition of TRKB (select kinases): No Inhibition (“No Inhibition” refers to less than 50% inhibition); KINOMEscan competition binding, inhibition of TRKC (select kinases): No Inhibition (“No Inhibition” refers to less than 50% inhibition); KINOMEscan competition binding, inhibition of VRK2 (select kinases): No Inhibition (“No Inhibition” refers to less than 50% inhibition); KINOMEscan competition binding, inhibition of YANK1 (select kinases): No Inhibition (“No Inhibition” refers to less than 50% inhibition); KINOMEscan competition binding, inhibition of YANK2 (select kinases): No Inhibition (“No Inhibition” refers to less than 50% inhibition); KINOMEscan competition binding, inhibition of YSK4 (select kinases): No Inhibition (“No Inhibition” refers to less than 50% inhibition); Kinase selectivity (select kinases; versus Example 9 and GSK2656157, KINOMEscan, Treespot analysis): more selective
2 | – | Cc1cc(NC(=O)Cc2ccccc2)ccc1-c1cn(C)c2ncnc(N)c12 [Compound A, reference compound] | – | – | – | – | – | – | – | – | – | – | – | – | – | – | – | – | – | – | – | IC50 [1, 5]: 6 nM; Aq Sol (Aqueous solubility): 14 µM; IC50 [2, 6]: 41 nM
3 | 1 to 25 nM | Cc1cc(NC(=O)C(O)c2ccccc2)ccc1-c1cn(C)c2ncnc(N)c12 (stereo not shown) [Example 6, N-(4-(4-amino-7-methyl-7H-pyrrolo[2,3-d]pyrimidin-5-yl)-3-methylphenyl)-2-hydroxy-2-phenylacetamide] | – | – | – | – | – | – | – | – | – | – | – | – | – | – | – | – | – | – | 1 to 25 nM | IC50 [1, 5]: 2 nM; Aq Sol (Aqueous solubility): 57 µM; IC50 [2, 6]: 23 nM
4 | 1 to 25 nM | Cc1cc(NC(=O)C(O)c2cccc(F)c2)ccc1-c1cn(C)c2ncnc(N)c12 (stereo not shown) [Example 9, N-(4-(4-amino-7-methyl-7H-pyrrolo[2,3-d]pyrimidin-5-yl)-3-methylphenyl)-2-(3-fluorophenyl)-2-hydroxyacetamide] | Inhibition (“Inhibition” refers to greater than 50% inhibition) | No inhibition | Inhibition (“Inhibition” refers to greater than 50% inhibition) | Inhibition (“Inhibition” refers to greater than 50% inhibition) | Inhibition (“Inhibition” refers to greater than 50% inhibition) | Inhibition (“Inhibition” refers to greater than 50% inhibition) | Inhibition (“Inhibition” refers to greater than 50% inhibition) | Inhibition (“Inhibition” refers to greater than 50% inhibition) | Inhibition (“Inhibition” refers to greater than 50% inhibition) | Inhibition (“Inhibition” refers to greater than 50% inhibition) | Inhibition (“Inhibition” refers to greater than 50% inhibition) | Inhibition (“Inhibition” refers to greater than 50% inhibition) | Inhibition (“Inhibition” refers to greater than 50% inhibition) | Inhibition (“Inhibition” refers to greater than 50% inhibition) | Inhibition (“Inhibition” refers to greater than 50% inhibition) | Inhibition (“Inhibition” refers to greater than 50% inhibition) | Inhibition (“Inhibition” refers to greater than 50% inhibition) | Inhibition (“Inhibition” refers to greater than 50% inhibition) | 1 to 25 nM | KINOMEscan competition binding, inhibition of NEK5 (select kinases): Inhibition (“Inhibition” refers to greater than 50% inhibition); KINOMEscan competition binding, inhibition of PIK3C2B (select kinases): Inhibition (“Inhibition” refers to greater than 50% inhibition); KINOMEscan competition binding, inhibition of RIOK2 (select kinases): Inhibition (“Inhibition” refers to greater than 50% inhibition); KINOMEscan competition binding, inhibition of RIPK1 (select kinases): No Inhibition (“No Inhibition” refers to less than 50% inhibition); KINOMEscan competition binding, inhibition of RIPK2 (select kinases): Inhibition (“Inhibition” refers to greater than 50% inhibition); KINOMEscan competition binding, inhibition of RIPK5 (select kinases): Inhibition (“Inhibition” refers to greater than 50% inhibition); KINOMEscan competition binding, inhibition of TESK1 (select kinases): Inhibition (“Inhibition” refers to greater than 50% inhibition); KINOMEscan competition binding, inhibition of TIE2 (select kinases): Inhibition (“Inhibition” refers to greater than 50% inhibition); KINOMEscan competition binding, inhibition of TRKA (select kinases): Inhibition (“Inhibition” refers to greater than 50% inhibition); KINOMEscan competition binding, inhibition of TRKB (select kinases): Inhibition (“Inhibition” refers to greater than 50% inhibition); KINOMEscan competition binding, inhibition of TRKC (select kinases): Inhibition (“Inhibition” refers to greater than 50% inhibition); KINOMEscan competition binding, inhibition of VRK2 (select kinases): Inhibition (“Inhibition” refers to greater than 50% inhibition); KINOMEscan competition binding, inhibition of YANK1 (select kinases): Inhibition (“Inhibition” refers to greater than 50% inhibition); KINOMEscan competition binding, inhibition of YANK2 (select kinases): Inhibition (“Inhibition” refers to greater than 50% inhibition); KINOMEscan competition binding, inhibition of YSK4 (select kinases): Inhibition (“Inhibition” refers to greater than 50% inhibition)
